Common to all, as to type: in vivo, Cimex lectularius
The subject of assay [1] is bed bugs (C. lectularius). Put plainly: three-dish, dual-choice olfactometer bioassay. The conditions noted are these: Exp. 23-37; nymphs; amounts in micrograms in parentheses of the bait. The source says: Bioassays were run in dual-choice olfactometers and in large Plexiglass arenas (FIG. 19). Dual-choice olfactometers consisted of two lateral Pyrex® glass Petri dishes, connected to a central dish (all dishes 3×9 cm inner diameter) via a Pyrex® glass tube (2.5 cm long×2 cm inner diameter). The dishes in this olfactometer mimic the natural still-air shelters in which bed bugs spend the day. Prior to the start of bioassays, a disc of paper toweling (9 cm diameter) was placed into each dish and a strip of paper toweling (2.4×0.6 cm) was inserted into the connecting glass tubing to provide traction for walking bed bugs. In addition, a piece of filter paper (2×3 cm; Whatman) was placed into each lateral dish and covered with a piece of cardboard (2×2 cm) as a refuge for bioassay insects.
Treatment and control stimuli were randomly assigned to each lateral dish. Olfactometers were enclosed in opaque plastic bins to prevent light from entering and affecting the insects' responses. For each replicate, a single 3rd, 4th, or 5th instar C. lectularius nymph was released into the central chamber of the olfactometer, which was then covered with a glass plate to prevent escape. The single bed bug in each olfactometer was then allowed to explore all chambers. Each insect was released into an olfactometer at the end of the 14-h photophase allowing it to explore the chambers during 10 h of darkness, and to come to rest in one of the shelters during 10 h of light. After this 20-h period, the insect's position within the olfactometer was recorded. Any insects not found in a lateral chamber were recorded as non-responders. All experimental replicates were run at 24±2° C. and 30-60% RH. Olfactometers were washed with Sparkleen detergent (Fisher Scientific Co, Pittsburgh, PA, USA), and were oven-dried (Precision, Winchester, VA, USA) between each bioassay.

Assay [2] relates to bed bugs. The experiment in a line: large Plexiglass arena bioassay with baited shelters. Particulars: adult males. The source says:
The large two-chamber Plexiglass arena (180 cm long×12 cm high×13 cm wide) was designed with a central divider (180 cm long×5.5 cm high) to accommodate two pieces of wood (162 cm long×3.8 cm wide×0.8 cm high), each piece for testing the response of a single bed bug to a pheromone-baited shelter or a control shelter (see insert in FIG. 19) which were randomly assigned to either end of the wood. […] For each replicate, a single bed bug was placed in the center of the wood piece just prior to the end of the 14-h photophase, and its position was scored the next morning after the onset of the photophase.
Experiments 68-75 also investigated the effect of the volatile pheromone components (VPCs) (E)-2-hexenal, (E)-2-octenal, dimethyl disulfide, dimethyl trisulfide and 2-hexanone, and the effect of the less-volatile pheromone component histamine (H), on attraction and arrestment of bed bugs. Treatment stimuli consisted of filter paper (4×2.2 cm) impregnated with H (2,000 μg) and covered with a piece of corrugated cardboard shelter (3×2.2 cm), and of VPCs formulated at a high dose (500 μg; Experiments 68-74) or a medium dose (50 μg; Exp. 75) in mineral oil (0.5 mL) and pipetted into the inverted lid of a 20-ml scintillation vial resting on top of the shelter (FIG. 19). Control stimuli were of identical design but the filter paper contained no H, and the mineral oil contained no VPCs.

Assay [3] relates to bed bugs. The experiment in a line: pheromone-baited shelter traps in a heavily infested residential apartment (Room 106). Particulars: Exp. 76-79, 24-h periods; for Mean ± SE number insects in baited shelter: VPCs total 500 μg, histamine 2,000 μg, nymphal and adult bed bugs; for Mean (±SE) number insects in control shelter: unbaited control shelter paired with the baited shelter.
Source text: To determine whether bed bugs responded to synthetic pheromone lures not only in large arena laboratory bioassays but also in infested premises (residential apartments), we placed pheromone-baited shelter traps (see FIG. 19) in apartments with known or suspected bed bug infestations. […] Based on 24-hour trapping results in multiple apartments, we selected a single, heavily infested apartment (hereafter referred to as Room 106) for further testing of synthetic bed bug pheromone lures.
Replicates (n=15-20) of each experiment consisted of paired shelters placed against a wall or furniture, with approximately 30-cm spacing between paired shelters and >1 m spacing between shelter pairs. For each shelter pair within each experiment, pheromone and control treatments were randomly assigned, and placement of replicates was alternated between the two experiments of Set 1 and Set 2. Because not more than 10 shelter pairs could be accommodated in Room 106 at any time, experimental data were collected over several consecutive 24-h periods. Every morning at 9:00, shelters were collected from Room 106 and immediately placed into separate labelled zipper lock bags which were then put on dry ice to kill the bed bugs that had entered a shelter. Bed bugs in each shelter were later counted in the laboratory under a microscope, noting their developmental stage (1st, 2nd, 3rd, or 4th instar, adult), sex (male, female), and evidence (or not) for blood feeding prior to entry into a shelter. Immediately following the removal of bed bug shelters from Room 106 each morning, new pre-prepared shelters were pheromone-baited (treatment) or not (control) and their position within shelter pairs randomly assigned (see above), again alternating placement of shelter pairs between Experiments 76 and 77 (Set 1) and between Experiments 78 and 79 (Set 2).

Here are results for 1 compound from patent US20250280816A1, “INSECT TRAP” (Scotts Canada Ltd., priority 2017, published 2025).

Each structure is given as a SMILES string.

Turning to `NCCc1c[nH]cn1` [H, histamine], in assay [1], the “No. insects in bait chamber” value is listed as 35. In addition, the “No. insects in control chamber” value in assay [1] turned out to be 10. In addition, the “No. insects not responding” value in assay [1] worked out at 3; in assay [2] (Exp. 68-71, 73, baited shelter 1 vs unbaited shelter 2), 5. Moreover, the “No. insects in shelter 1” value in assay [2] (Exp. 68-71, 73, baited shelter 1 vs unbaited shelter 2, VPCs 500 μg, histamine 2,000 μg) is 12. The “No. insects in shelter 2” value is recorded as 1 in assay [2] (Exp. 68-71, 73, unbaited shelter 2 paired with the baited shelter 1); “one” in assay [2] (Exp. 68-71, 73, unbaited shelter 2 paired with the baited shelter 1, listed as histamine); 14 in assay [2] (Exp. 72, shelter 2 H (2,000 μg) vs shelter 1 VPC (500 μg)); 5 in assay [2] (Exp. 74, shelter 2 H (2,000 μg) vs shelter 1 VPC (500 μg) + H); 0 in assay [2] (Exp. 75, shelter 2 H (2,000 μg) vs shelter 1 VPC (50 μg) + H). Besides, the figures for the “Mean ± SE number insects in baited shelter” value in assay [3] and in assay [3] (listed as histamine) were 6.06 ± 1.28 and 6.06, respectively. The “Mean (±SE) number insects in control shelter” value in assay [3] turned out to be 4.53 ± 1.8; in assay [3] (listed as histamine), 4.53.
